{
  "source": "patent US20170223976A1",
  "about": "“MODIFIED MILK POWDER CONTAINING 1,5-ANHYDRO-D-GLUCITOL” (NIHON STARCH CO., LTD., priority 2015, published 2017)",
  "key": {"PC12 cells [1]": {"test_system": "PC12 cells", "experiment": "Fluorescence determination of number of living cells and amount of neurite outgrowth (neurite outgrowth staining kit)", "type": "cell-based", "settings": "NGF added section (100 ng/mL)", "method": "(§1) A test was carried out at five concentrations (1.6, 8, 40, 200 and 1,000 μg/mL) of 1,5-AG. Stated more specifically, a 1,5-AG aqueous solution having a concentration of 100 mg/mL was diluted with water to prepare 100 times-concentrated solutions having concentrations of 0.16, 0.8, 4, 20 and 100 mg/mL. These 100 times-concentrated solutions were each added to a test medium in a ratio of 1/100 to achieve final concentrations of 1.6, 8, 40, 200 and 1,000 μg/mL and sterilized with a filter to be used in the test. As a negative control, water was added to a medium in a ratio of 1/100 and sterilized with a filter to be used in the test. As a positive control, a test medium containing a 100 ng/mL nerve growth factor (NGF) was used.\n(§2) A growth medium was used to adjust the cells to a concentration of 2.0×10^3 cells/100 μL/well, and the cells were scattered in a collagen-coated 96-well plate to be cultured in a CO2 incubator (5% CO2, 37° C., moistening) for 24 hours. After culture, the medium was replaced by a sample-containing test medium (100 μL), and the cells were cultured in a CO2 incubator for 96 hours. After the end of culture, an image of the cells in each well was taken with a phase difference microscope and used for the measurement of nuetrite outgrowth rate, and nuclei and cytoplasms were fluorescent dyed by using a neurite outgrowth staining kit to measure the number of living cells and the amount of neurite outgrowth. These procedures were carried out five times each.\nAfter the end of culture, the number of living cells and the amount of neurite outgrowth were determined by using a neurite outgrowth staining kit. Stated more specifically, after the medium was removed, 100 μL of a staining solution (prepared by diluting Cell Viability Indicator and Cell Membrane Stain attached to the kit with calcium magnesium-containing PBS 1,000 times) was added to each well to incubate the cells at 37° C. for 20 minutes. After incubation, the staining solution was removed, 100 μL of a background suppression solution (prepared by diluting the background suppression dye attached to the kit with calcium magnesium-containing PBS 100 times) was added to each well so as to measure fluorescence intensity with a micro plate reader (measurement of the number of living cells: excitation wavelength of 495 nm, fluorescence wavelength of 515 nm, measurement of the amount of neurite outgrowth: excitation wavelength of 555 nm, fluorescent wavelength of 565 nm)."}, "PC12 cells [2]": {"test_system": "PC12 cells", "experiment": "Determination of neurite outgrowth rate in PC12 cells (image count)", "type": "cell-based", "settings": "NGF added section (100 ng/mL), 96 hours", "method": "PSG-1 belongs to an immunoglobulin super family which includes some having the function of promoting neurogenesis. Then, the influence of 1,5-AG upon neuritogenesis was investigated. This was evaluated in a test system using PC12 cells which are generally used for the evaluation of neuritogenesis.\nPC12 cells (Lot No. 48, Lot No. 51) (RIKEN cell bank, material 1)\nDMEM medium prepared by adding 0.1% of FBS, 0.1% of HS, 1 ng/mL NGF and 1% of penicillin-streptomycin\nPC12 cells were initiated in a T-75 flask by using a growth medium to be cultured in a CO2 incubator (5% CO2, 37° C., moistening). Medium exchange was carried out every 2 days, the cells were collected when 80% confluence was reached, and cells having a passage number of 2 were used in this test. Stated more specifically, after the cells were washed with D-PBS (−), the cells were separated by using 0.05% trypsin, and a growth medium was added to neutralize trypsin. Then, the supernatant was removed by centrifugation (180 g, 5 minutes), a growth medium was added to stir the cells, the number of the cells was counted by using a corpuscle calculating board, and a growth medium was used to achieve a target concentration (2.0×10^3 cells/100 μL).\nas §1, §2\nBased on the image taken above, the total number of cells, the number of cells showing the same or higher neurite outgrowth than the cell length and the number of cells showing neurites having a length 2 times or more than the cell length were measured from the image of the cells. The percentage (%) of cells showing neurite outgrowth was calculated from the measurement values."}},
  "data": [
    {"substance": "NGF: positive control: a test medium containing a 100 ng/mL nerve growth factor (NGF) [reference compound]", "values": [
      {"measurement": "amount of neurite outgrowth per cell as compared with the non-added section", "setting": "PC12 cells [1]", "result": 183.1, "unit": "%"},
      {"measurement": "cells showing a neurite outgrowth rate of 1 time or more", "setting": "PC12 cells [2]", "result": 68.8, "unit": "%"},
      {"measurement": "cells showing a neurite outgrowth rate of 2 times or more", "setting": "PC12 cells [2]", "result": 54.5, "unit": "%"}
    ]}
  ]
}
